Measurements reported in PubChem BioAssay AID1918952 (Molecular Pharmacology Branch, DTP, NCI, 2023).

Test system: LG0703-F948-PDC complex spheroid viability
Experiment: Anticancer human tumor LG0703-F948-PDC patient-derived lung adenocarcinoma cell line growth inhibition
Details: for IC50: curve of first compound; for viability, T/C: stronger effect = lower value; active = viability on the fitted dose curve at most 10% of control; inactive = the rest
Summary of the method: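 Complex spheroids of tumor cells with HUVEC and human MSCs, exposed to iadademstat combined with other agents. Each agent tested in half-log steps from near clinical Cmax (else 10 microM top), DMSO ≤0.25%.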

[1] = second compound 0.1 µM, first compound 0.000316 µM
[2] = second compound 0.1 µM, first compound 0.001 µM
[3] = second compound 0.1 µM, first compound 0.00316 µM
[4] = second compound 0.1 µM, first compound 0.01 µM
[5] = second compound 0.1 µM, first compound 0.0316 µM
[6] = second compound 0.1 µM, first compound 0.1 µM
[7] = second compound 0.316 µM, first compound 0.000316 µM
[8] = second compound 0.316 µM, first compound 0.001 µM
[9] = second compound 0.316 µM, first compound 0.00316 µM
[10] = second compound 0.316 µM, first compound 0.01 µM
[11] = second compound 0.316 µM, first compound 0.0316 µM
[12] = second compound 0.316 µM, first compound 0.1 µM
[13] = second compound 1 µM, first compound 0.000316 µM
[14] = second compound 1 µM, first compound 0.001 µM
[15] = second compound 1 µM, first compound 0.00316 µM
[16] = second compound 1 µM, first compound 0.01 µM
[17] = second compound 1 µM, first compound 0.0316 µM
[18] = second compound 1 µM, first compound 0.1 µM
[19] = second compound 3.16 µM, first compound 0.000316 µM
[20] = second compound 3.16 µM, first compound 0.001 µM
[21] = second compound 3.16 µM, first compound 0.00316 µM
[22] = second compound 3.16 µM, first compound 0.01 µM
[23] = second compound 3.16 µM, first compound 0.0316 µM
[24] = second compound 3.16 µM, first compound 0.1 µM
[25] = second compound 10 µM, first compound 0.000316 µM
[26] = second compound 10 µM, first compound 0.001 µM
[27] = second compound 10 µM, first compound 0.00316 µM
[28] = second compound 10 µM, first compound 0.01 µM
[29] = second compound 10 µM, first compound 0.0316 µM
[30] = second compound 10 µM, first compound 0.1 µM
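Note: spheroids exposed to agents for seven days before readout.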
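Throughout, for viability, T/C: 100% = DMSO vehicle control wells as normalization base.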

CC(C)CC(NC(=O)C(Cc1ccccc1)NC(=O)c1cnccn1)B(O)O (stereo not given) + NC1CC1c1ccc(-c2cccc(O)c2)cc1
< 0.316 nM: IC50 (second compound 0.1 µM) | IC50 (second compound 0.316 µM) | IC50 (second compound 1 µM) | IC50 (second compound 3.16 µM) | IC50 (second compound 10 µM)
active: viability, T/C [1] 6.46% | viability, T/C [2] 0.12% | viability, T/C [3] 0.04% | viability, T/C [4] 0.06% | viability, T/C [5] 0.03% | viability, T/C [6] 1.07% | viability, T/C [7] 7.13% | viability, T/C [8] 0.36% | viability, T/C [9] 0.54% | viability, T/C [10] 0.02% | viability, T/C [11] 0.31% | viability, T/C [12] 0.14% | viability, T/C [13] 4.36% | viability, T/C [14] 0.11% | viability, T/C [15] 0.85% | viability, T/C [16] 0.07% | viability, T/C [17] 0.95% | viability, T/C [18] 0.99% | viability, T/C [19] 4.22% | viability, T/C [20] 0.74% | viability, T/C [21] 0.05% | viability, T/C [22] 0.39% | viability, T/C [23] 0.09% | viability, T/C [24] 0.14% | viability, T/C [25] 1.18% | viability, T/C [26] 1.11% | viability, T/C [27] 0.6% | viability, T/C [28] 1.43% | viability, T/C [29] 0.9% | viability, T/C [30] 0.98%

CC(C)CC(NC(=O)CNC(=O)c1cc(Cl)ccc1Cl)B1OC(=O)CC(CC(=O)O)(C(=O)O)O1 (stereo not given) + NC1CC1c1ccc(-c2cccc(O)c2)cc1
2.83 nM: IC50 (second compound 1 µM)
3.13 nM: IC50 (second compound 3.16 µM)
inactive: viability, T/C [1] 91.2% | viability, T/C [2] 102% | viability, T/C [3] 57.3% | viability, T/C [7] 102% | viability, T/C [8] 96.5% | viability, T/C [9] 47.9% | viability, T/C [13] 90.9% | viability, T/C [14] 106% | viability, T/C [15] 44.7% | viability, T/C [19] 93.9% | viability, T/C [20] 103% | viability, T/C [21] 49.6% | viability, T/C [25] 83.2% | viability, T/C [26] 96.4% | viability, T/C [27] 41.5%
active: viability, T/C [4] 9.87% | viability, T/C [5] 1.39% | viability, T/C [6] 0.35% | viability, T/C [10] 10.8% | viability, T/C [11] 1.68% | viability, T/C [12] 0.68% | viability, T/C [16] 8.76% | viability, T/C [17] 0.48% | viability, T/C [18] 0.25% | viability, T/C [22] 6.24% | viability, T/C [23] 0.66% | viability, T/C [24] 0.21% | viability, T/C [28] 3.08% | viability, T/C [29] 0.14% | viability, T/C [30] 0.2%
2.58 nM: IC50 (second compound 10 µM)
3.82 nM: IC50 (second compound 0.1 µM)
3.08 nM: IC50 (second compound 0.316 µM)

Nc1ccccc1NC(=O)c1ccc(CNC(=O)OCc2cccnc2)cc1 + NC1CC1c1ccc(-c2cccc(O)c2)cc1
inactive: viability, T/C (second compound 0.1 µM, first compound 0.00949 µM) 96.4% | viability, T/C (second compound 0.1 µM, first compound 0.03 µM) 85.7% | viability, T/C (second compound 0.1 µM, first compound 0.0949 µM) 49.5% | viability, T/C (second compound 0.1 µM, first compound 0.3 µM) 14.9% | viability, T/C (second compound 0.316 µM, first compound 0.00949 µM) 86% | viability, T/C (second compound 0.316 µM, first compound 0.03 µM) 74.1% | viability, T/C (second compound 0.316 µM, first compound 0.0949 µM) 50.6% | viability, T/C (second compound 1 µM, first compound 0.00949 µM) 80.9% | viability, T/C (second compound 1 µM, first compound 0.03 µM) 76.7% | viability, T/C (second compound 1 µM, first compound 0.0949 µM) 45.1% | viability, T/C (second compound 3.16 µM, first compound 0.00949 µM) 87.2% | viability, T/C (second compound 3.16 µM, first compound 0.03 µM) 80.4% | viability, T/C (second compound 3.16 µM, first compound 0.0949 µM) 52.2% | viability, T/C (second compound 10 µM, first compound 0.00949 µM) 95.3% | viability, T/C (second compound 10 µM, first compound 0.03 µM) 68.7% | viability, T/C (second compound 10 µM, first compound 0.0949 µM) 42.5% | viability, T/C (second compound 10 µM, first compound 0.3 µM) 7.86%
63 nM: IC50 (second compound 10 µM)
94.8 nM: IC50 (second compound 0.1 µM)
active: viability, T/C (second compound 0.1 µM, first compound 0.949 µM) 1.36% | viability, T/C (second compound 0.1 µM, first compound 3 µM) 0.66% | viability, T/C (second compound 0.316 µM, first compound 0.3 µM) 7.98% | viability, T/C (second compound 0.316 µM, first compound 0.949 µM) 0.56% | viability, T/C (second compound 0.316 µM, first compound 3 µM) 0.86% | viability, T/C (second compound 1 µM, first compound 0.3 µM) 8.53% | viability, T/C (second compound 1 µM, first compound 0.949 µM) 0.73% | viability, T/C (second compound 1 µM, first compound 3 µM) 0.8% | viability, T/C (second compound 3.16 µM, first compound 0.3 µM) 6.55% | viability, T/C (second compound 3.16 µM, first compound 0.949 µM) 0.23% | viability, T/C (second compound 3.16 µM, first compound 3 µM) 0.32% | viability, T/C (second compound 10 µM, first compound 0.949 µM) 0.67% | viability, T/C (second compound 10 µM, first compound 3 µM) 0.19%
99 nM: IC50 (second compound 3.16 µM)
79.7 nM: IC50 (second compound 1 µM)
90.7 nM: IC50 (second compound 0.316 µM)

O=C(c1cc(Cc2n[nH]c(=O)c3ccccc23)ccc1F)N1CCN(C(=O)C2CC2)CC1 + NC1CC1c1ccc(-c2cccc(O)c2)cc1
> 10000 nM: IC50 (second compound 0.1 µM) | IC50 (second compound 0.316 µM) | IC50 (second compound 1 µM) | IC50 (second compound 3.16 µM) | IC50 (second compound 10 µM)
inactive: viability, T/C [5] 112% | viability, T/C [6] 121% | viability, T/C (second compound 0.1 µM, first compound 0.316 µM) 114% | viability, T/C (second compound 0.1 µM, first compound 1 µM) 107% | viability, T/C (second compound 0.1 µM, first compound 3.16 µM) 92.6% | viability, T/C (second compound 0.1 µM, first compound 10 µM) 98.6% | viability, T/C [11] 109% | viability, T/C [12] 111% | viability, T/C (second compound 0.316 µM, first compound 0.316 µM) 124% | viability, T/C (second compound 0.316 µM, first compound 1 µM) 99% | viability, T/C (second compound 0.316 µM, first compound 3.16 µM) 95.2% | viability, T/C (second compound 0.316 µM, first compound 10 µM) 79.5% | viability, T/C [17] 102% | viability, T/C [18] 121% | viability, T/C (second compound 1 µM, first compound 0.316 µM) 134% | viability, T/C (second compound 1 µM, first compound 1 µM) 102% | viability, T/C (second compound 1 µM, first compound 3.16 µM) 92.1% | viability, T/C (second compound 1 µM, first compound 10 µM) 86% | viability, T/C [23] 114% | viability, T/C [24] 107% | viability, T/C (second compound 3.16 µM, first compound 0.316 µM) 122% | viability, T/C (second compound 3.16 µM, first compound 1 µM) 102% | viability, T/C (second compound 3.16 µM, first compound 3.16 µM) 106% | viability, T/C (second compound 3.16 µM, first compound 10 µM) 127% | viability, T/C [29] 111% | viability, T/C [30] 94.3% | viability, T/C (second compound 10 µM, first compound 0.316 µM) 110% | viability, T/C (second compound 10 µM, first compound 1 µM) 107% | viability, T/C (second compound 10 µM, first compound 3.16 µM) 106% | viability, T/C (second compound 10 µM, first compound 10 µM) 91.8%
